What was measured:
[1] = tested on: anti-Aβ antibodies in sera of vaccinated patients; assay: Epitope mapping, competitive binding inhibition EIA with patient sera (10-mer peptides, IC50); parameters: species or system human; Epitope mapping, fine specificity analysis, serum of subject P210: unit not given here; conditions: for Epitope mapping, fine specificity analysis, serum of subject P101: serum 16 wpi of vaccinated patient P101; for Epitope mapping, fine specificity analysis, serum of subject P102: serum 16 wpi of vaccinated patient P102; for Epitope mapping, fine specificity analysis, serum of subject P103: serum 16 wpi of vaccinated patient P103; for Epitope mapping, fine specificity analysis, serum of subject P104: serum 16 wpi of vaccinated patient P104; for Epitope mapping, fine specificity analysis, serum of subject P105: serum 16 wpi of vaccinated patient P105; for Epitope mapping, fine specificity analysis, serum of subject P106: serum 16 wpi of vaccinated patient P106; for Epitope mapping, fine specificity analysis, serum of subject P107: serum 16 wpi of vaccinated patient P107; for Epitope mapping, fine specificity analysis, serum of subject P108: serum 16 wpi of vaccinated patient P108; for Epitope mapping, fine specificity analysis, serum of subject P109: serum 16 wpi of vaccinated patient P109; for Epitope mapping, fine specificity analysis, serum of subject P201: serum 16 wpi of vaccinated patient P201; for Epitope mapping, fine specificity analysis, serum of subject P202: serum 16 wpi of vaccinated patient P202; for Epitope mapping, fine specificity analysis, serum of subject P203: serum 16 wpi of vaccinated patient P203; for Epitope mapping, fine specificity analysis, serum of subject P204: serum 16 wpi of vaccinated patient P204; for Epitope mapping, fine specificity analysis, serum of subject P205: serum 16 wpi of vaccinated patient P205; for Epitope mapping, fine specificity analysis, serum of subject P206: serum 16 wpi of vaccinated patient P206; for Epitope mapping, fine specificity analysis, serum of subject P207: serum 16 wpi of vaccinated patient P207; for Epitope mapping, fine specificity analysis, serum of subject P208: serum 16 wpi of vaccinated patient P208; for Epitope mapping, fine specificity analysis, serum of subject P209: serum 16 wpi of vaccinated patient P209; for Epitope mapping, fine specificity analysis, serum of subject P210: serum 16 wpi of vaccinated patient P210
[2] = tested on: anti-Aβ antibodies in macaque antisera; assay: Specificity analysis (10-mer peptide ELISA) of antisera from Cynomolgus macaques; format: binding
[3] = antisera of macaques given UBI AD Vaccine 150 μg/dose, 9 WPI
[4] = antisera of macaques given UBI AD Vaccine 150 μg/dose, 15 WPI
[5] = antisera of macaques given UBI AD Vaccine 750 μg/dose, 9 WPI
[6] = antisera of macaques given UBI AD Vaccine 750 μg/dose, 15 WPI

Row | Substance | Epitope mapping, fine specificity analysis, serum of subject P101 [1] | Epitope mapping, fine specificity analysis, serum of subject P102 [1] | Epitope mapping, fine specificity analysis, serum of subject P103 [1] | Epitope mapping, fine specificity analysis, serum of subject P104 [1] | Epitope mapping, fine specificity analysis, serum of subject P105 [1] | Epitope mapping, fine specificity analysis, serum of subject P106 [1] | Epitope mapping, fine specificity analysis, serum of subject P107 [1] | Epitope mapping, fine specificity analysis, serum of subject P108 [1] | Epitope mapping, fine specificity analysis, serum of subject P109 [1] | Epitope mapping, fine specificity analysis, serum of subject P201 [1] | Epitope mapping, fine specificity analysis, serum of subject P202 [1] | Epitope mapping, fine specificity analysis, serum of subject P203 [1] | Epitope mapping, fine specificity analysis, serum of subject P204 [1] | Epitope mapping, fine specificity analysis, serum of subject P205 [1] | Epitope mapping, fine specificity analysis, serum of subject P206 [1] | Epitope mapping, fine specificity analysis, serum of subject P207 [1] | Epitope mapping, fine specificity analysis, serum of subject P208 [1] | Epitope mapping, fine specificity analysis, serum of subject P209 [1] | Epitope mapping, fine specificity analysis, serum of subject P210 [1] | Reactivity of antisera with peptide (specificity analysis ELISA) [2, 3] | further results
1 | 8 (TEEISEVKMD; PEPTIDE (1)..(10) Abeta -9-1 or APP 770(T663-D672); listed as Homo sapiens) [compound 8] | 0 | 0 | 0 | 0 | 0 | 0 | 0 | 0 | 0 | 0 | 0 | 0 | 0 | 0 | 0 | 0 | 0 | 0 | 0 | 0.075 | Reactivity of antisera with peptide (specificity analysis ELISA) [2, 4]: 0.084; Reactivity of antisera with peptide (specificity analysis ELISA) [2, 5]: 0.061; Reactivity of antisera with peptide (specificity analysis ELISA) [2, 6]: 0.078
2 | 30 (QKLVFFAEDV; PEPTIDE (1)..(10) Abeta 15-24 or APP 770(Q686-V695); listed as Homo sapiens) [compound 30] | 0 | 0 | 0 | 0 | 0 | 0 | 0 | 0 | 0 | 0 | 0 | 0 | 0 | 0 | 0 | 0 | 0 | 0 | 0 | 0.043 | Reactivity of antisera with peptide (specificity analysis ELISA) [2, 4]: 0.055; Reactivity of antisera with peptide (specificity analysis ELISA) [2, 5]: 0.062; Reactivity of antisera with peptide (specificity analysis ELISA) [2, 6]: 0.059
3 | 11 (ISEVKMDAEF; PEPTIDE (1)..(10) Abeta -6-4 or APP 770(I666-F675); listed as Homo sapiens) [compound 11] | 0 | 0 | 0 | 0 | 0 | 0 | 0 | 0 | 0 | 0 | 0 | 0 | 0 | 0 | 0 | 0 | 0 | 0 | 0 | 0.055 | Reactivity of antisera with peptide (specificity analysis ELISA) [2, 4]: 0.058; Reactivity of antisera with peptide (specificity analysis ELISA) [2, 5]: 0.063; Reactivity of antisera with peptide (specificity analysis ELISA) [2, 6]: 0.062
4 | 9 (EEISEVKMDA; PEPTIDE (1)..(10) Abeta -8-2 or APP 770(E664-A673); listed as Homo sapiens) [compound 9] | 0 | 0 | 0 | 0 | 0 | 0 | 0 | 0 | 0 | 0 | 0 | 0 | 0 | 0 | 0 | 0 | 0 | 0 | 0 | 0.082 | Reactivity of antisera with peptide (specificity analysis ELISA) [2, 4]: 0.092; Reactivity of antisera with peptide (specificity analysis ELISA) [2, 5]: 0.081; Reactivity of antisera with peptide (specificity analysis ELISA) [2, 6]: 0.076

From patent publication US9102752B2, “Peptide vaccine for prevention and immunotherapy of dementia of the Alzheimer's type” (United Biomedical, Inc., priority 2013, dated 2015)
